Laboratory results from patent US20100062477A1, “METHODS OF ISOLATING AND PROPAGATING STEM CELLS FROM BENIGN TUMORS” (CEDARS-SINAI MEDICAL CENTER, priority 2006, published 2010).

System: Pituitary tumor stem cells and adherent daughter cells
Assay: WST-1 proliferation assay of resistance to chemotherapeutic treatment
Assay type: cell-based, human
Conditions: 50 μM carboplatin and 12.5 μM VP16 for 48 h; stem cells compared with adherent cells
Protocol: Pituitary tumor stem cells and adherent daughter cells were also tested for the resistance to chemotherapeutic treatment. Cells were treated with 50 μM carboplatin and 12.5 μM VP16 for 48 h and the toxicity was assessed by WST-1 proliferation assay.

| SMILES | toxicity assessed by WST-1 proliferation assay (resistance of pituitary tumor stem cells vs adherent daughter cells) |
| --- | --- |
| N.N.O=C([O-])C1(C(=O)[O-])CCC1.[Pt+2] [carboplatin] | significantly more resistant than the adherent cells |
| COc1cc([C@@H]2c3cc4c(cc3[C@@H](O[C@@H]3O[C@@H]5CO[C@@H](C)O[C@H]5[C@H](O)[C@H]3O)[C@H]3COC(=O)[C@H]23)OCO4)cc(OC)c1O [VP16] | significantly more resistant than the adherent cells |
